From ChEMBL document CHEMBL1201862, “PubChem BioAssay data set” (2004)
Each block holds one molecule with its values, some of them ahead of it. Active and inactive are the calls of the source.

Legend:
[1] = THP-1 cell cytotoxicity, dose response, cytotoxicity control for Vif-APOBEC3G degradation inhibitor project, THP-1 cells (AID 1117359); assay type: functional; details: Human immunodeficiency virus 1, THP-1
[2] = inhibitors of Vif binding to APOBEC3G peptide, primary screen, biochemical, TR-FRET, GST-Vif 1-94, biotin-A3G peptide, dose response retest (AID 1117319); assay type: functional;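 further: TR-FRET signal of purified GST-Vif binding a biotinylated A3G peptide; inhibitors lower the FRET signal by blocking Vif and A3G binding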
[3] = ZM109 Env clade C HIV-1 fusion inhibitors, dose response, HeLa effector, CEM target cells, luciferase, cherry-pick (AID 652058); assay type: functional, cell-based
[4] = inhibitors of clade B AD8 Env fusion, dose response, cell-based, cherry-pick (AID 652062); assay type: functional;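 further: luciferase signal from cell-cell fusion driven by HIV-1 clade B AD8 Env; potency is for inhibitors of fusion seen as a drop in luminescence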
[5] = inhibitors of HIV Env-driven cell fusion, dose response, cherry-pick (AID 652057); assay type: functional, cell-based
[6] = off-target signal loss in HeLa-CEM21 co-culture – HeLa F-luc CTL cells, cherry-picked, counter-screen for HIV-1 Env fusion inhibitor project, dose response (AID 652040); assay type: functional, cell-based;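 further: potency for signal decrease marking cytotoxic or nonspecific inhibition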
[7] = biological target: T1, Mannose-6-phosphate isomerase (Homo sapiens, UniProt P34949); assay: human PMI inhibitors, high substrate, primary screen, biochemical, fluorescence intensity, high mannose 6-phosphate (AID 1220)
T1 sequence (P34949 whole entry): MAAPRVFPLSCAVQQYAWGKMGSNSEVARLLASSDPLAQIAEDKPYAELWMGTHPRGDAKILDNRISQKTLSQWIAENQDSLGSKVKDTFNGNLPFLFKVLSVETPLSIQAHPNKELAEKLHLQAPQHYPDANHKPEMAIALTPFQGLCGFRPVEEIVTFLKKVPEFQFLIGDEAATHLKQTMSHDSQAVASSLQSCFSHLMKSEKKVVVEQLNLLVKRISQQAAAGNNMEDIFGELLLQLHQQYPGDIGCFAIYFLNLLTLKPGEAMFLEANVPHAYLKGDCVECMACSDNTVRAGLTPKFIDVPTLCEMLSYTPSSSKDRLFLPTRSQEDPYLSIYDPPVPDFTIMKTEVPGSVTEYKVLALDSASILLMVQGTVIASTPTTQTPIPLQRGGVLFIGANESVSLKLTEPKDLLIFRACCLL

[8] = biological target: Glyceraldehyde-3-phosphate dehydrogenase (Homo sapiens, UniProt P04406)
Bcl-2-related protein A1 [9] = biological target: T2, Bcl-2-related protein A1 (Mus musculus, UniProt Q07440); assay: Bfl-1 inhibitors blocking BH3 peptide binding, confirmation, biochemical, TR-FRET, mouse Bfl-1 (AID 621);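 further: TR-FRET binding of GST-Bfl-1 to FITC-labelled Bid peptide via terbium antibody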
T2 sequence (Q07440 whole entry): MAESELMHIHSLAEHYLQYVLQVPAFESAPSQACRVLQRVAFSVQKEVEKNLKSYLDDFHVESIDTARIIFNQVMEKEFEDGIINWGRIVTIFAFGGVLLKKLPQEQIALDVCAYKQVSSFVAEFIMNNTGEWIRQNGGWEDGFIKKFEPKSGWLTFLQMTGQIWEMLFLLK

Bcl-2-related protein A1 [10] = biological target: T2, Bcl-2-related protein A1; assay: Bfl-1 binding inhibitors, SAR follow-up, biochemical, fluorescence polarization (AID 1070)
[11] = P. falciparum Dd2 growth inhibitors, dose response, SYBR Green, cherry-picked samples (AID 1159567); assay type: functional, cell-based

Glyceraldehyde-3-phosphate dehydrogenase, sequence (P04406 whole entry): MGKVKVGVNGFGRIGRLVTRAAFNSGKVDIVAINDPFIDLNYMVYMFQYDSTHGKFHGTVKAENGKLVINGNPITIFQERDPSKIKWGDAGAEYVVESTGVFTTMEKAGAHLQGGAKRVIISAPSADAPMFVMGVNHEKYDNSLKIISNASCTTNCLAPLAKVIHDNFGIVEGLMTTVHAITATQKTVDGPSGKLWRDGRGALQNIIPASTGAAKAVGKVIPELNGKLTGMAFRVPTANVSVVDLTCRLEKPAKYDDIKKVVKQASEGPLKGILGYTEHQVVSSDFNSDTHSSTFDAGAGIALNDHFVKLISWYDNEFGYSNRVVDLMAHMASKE

Compound: CN(C)CCn1c(=O)n(-c2cccc(Cl)c2)c(=O)c2c3c(sc21)CCCCC3
AC50 [3]: 0.997 µM (active) | AC50 [4]: 4.37 µM (active) | AC50 [5]: 0.786 µM (active) | AC50 [6]: 1.96 µM (active)

Compound: COCCn1c(-c2ccccc2Cl)nc2c(c(=O)c3ccccc3n2C)c1=O
IC50 (cells): 14.6 µM (active)

Compound: O=C1C(Cl)=C(Nc2ccccc2)C(=O)N1c1ccc(Cl)c(Cl)c1
IC50 [8]: > 100 µM (not active) | IC50 (Bcl-2-related protein A1 [9]): > 100 µM (not active) | IC50 (Bcl-2-related protein A1 [10]): > 100 µM (not active)

Compound: COC(=O)[C@]1(C)N[C@H](CN(C)S(=O)(=O)c2ccc(-c3ccccc3)cc2)[C@@H]2C(=O)N(Cc3ccccc3)C(=O)[C@@H]21
AC50 [3]: 9.4 µM (active) | AC50 [4]: 11.7 µM (active) | AC50 [5]: 3.7 µM (active) | AC50 [6]: 5.77 µM (active)

Compound: CCS(=O)(=O)N1[C@H](CO)[C@H](c2ccc(C#Cc3ccccc3F)cc2)[C@@H]1C#N
AC50 [11]: 4.23 µM (active)

The next lines start with results.

IC50 [2]: > 100 µM (active)
Compound: COc1ccc(C(=O)Cn2c(=N)n(C)c3ccccc32)cc1
CC50 [1]: > 40 µM (active)

IC50 [7]: > 50 µM (not active)
Compound: Cc1cccc(Oc2c([N+](=O)[O-])c(=O)n(C)c3ccccc23)c1

IC50 [2]: > 100 µM (active)
Compound: CC(C)n1/c(=N/C(=O)c2ccco2)c(C#N)cc2c(=O)n3ccccc3cc21
